Drawing on ChEMBL document CHEMBL5696442, “Discovery of type II inhibitors of TGFβ-activated kinase 1 (TAK1) and mitogen-activated protein kinase kinase kinase kinase 2 (MAP4K2)” (J Med Chem, 2015), this text covers inhibition for three molecules.

The source made the active and inactive calls. The rule behind the calls is not given here.

In assay [1] the target is Epidermal growth factor receptor (Homo sapiens) (UniProt P00533). The experiment in a line: Inhibition of EGFR Lys1 labeling site harbouring IPVAIKELR in human Huh-7 cells at 1 uM by KiNativ Profiling analysis relative to control. In kind it is cell-based.
Epidermal growth factor receptor (Homo sapiens), sequence (P00533 whole entry): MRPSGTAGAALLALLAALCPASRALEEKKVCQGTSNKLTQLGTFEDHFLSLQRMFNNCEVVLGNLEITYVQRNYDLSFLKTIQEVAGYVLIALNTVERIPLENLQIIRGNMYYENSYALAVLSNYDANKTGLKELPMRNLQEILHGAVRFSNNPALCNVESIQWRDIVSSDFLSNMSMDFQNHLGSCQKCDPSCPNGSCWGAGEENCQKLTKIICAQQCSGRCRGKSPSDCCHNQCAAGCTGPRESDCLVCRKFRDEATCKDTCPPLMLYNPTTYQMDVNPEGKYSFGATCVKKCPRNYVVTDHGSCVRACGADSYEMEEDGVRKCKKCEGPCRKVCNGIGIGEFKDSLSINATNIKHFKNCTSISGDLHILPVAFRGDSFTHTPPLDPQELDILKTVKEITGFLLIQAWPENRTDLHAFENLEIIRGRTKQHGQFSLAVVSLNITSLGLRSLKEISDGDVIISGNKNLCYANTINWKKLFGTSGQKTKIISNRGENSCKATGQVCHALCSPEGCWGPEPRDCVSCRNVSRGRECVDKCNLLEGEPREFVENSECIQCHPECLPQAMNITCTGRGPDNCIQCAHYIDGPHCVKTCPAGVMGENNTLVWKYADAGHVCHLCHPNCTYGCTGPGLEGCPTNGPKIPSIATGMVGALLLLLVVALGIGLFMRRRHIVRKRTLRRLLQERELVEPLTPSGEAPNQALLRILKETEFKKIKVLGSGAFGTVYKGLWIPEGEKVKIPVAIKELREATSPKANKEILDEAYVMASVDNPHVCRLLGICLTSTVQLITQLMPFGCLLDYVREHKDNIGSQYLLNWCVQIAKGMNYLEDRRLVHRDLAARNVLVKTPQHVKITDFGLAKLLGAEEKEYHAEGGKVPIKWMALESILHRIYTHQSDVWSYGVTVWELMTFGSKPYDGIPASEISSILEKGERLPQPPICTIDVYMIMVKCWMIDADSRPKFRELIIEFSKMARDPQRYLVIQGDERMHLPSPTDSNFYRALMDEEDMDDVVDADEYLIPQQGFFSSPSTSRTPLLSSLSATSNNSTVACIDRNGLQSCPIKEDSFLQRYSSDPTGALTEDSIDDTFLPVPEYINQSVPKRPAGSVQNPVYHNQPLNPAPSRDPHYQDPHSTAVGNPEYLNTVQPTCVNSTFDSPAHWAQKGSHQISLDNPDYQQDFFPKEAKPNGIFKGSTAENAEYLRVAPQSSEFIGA
The target in assay [2] is T1, Mitogen-activated protein kinase kinase kinase 2 (Homo sapiens) (UniProt Q9Y2U5).
T1 sequence (whole entry): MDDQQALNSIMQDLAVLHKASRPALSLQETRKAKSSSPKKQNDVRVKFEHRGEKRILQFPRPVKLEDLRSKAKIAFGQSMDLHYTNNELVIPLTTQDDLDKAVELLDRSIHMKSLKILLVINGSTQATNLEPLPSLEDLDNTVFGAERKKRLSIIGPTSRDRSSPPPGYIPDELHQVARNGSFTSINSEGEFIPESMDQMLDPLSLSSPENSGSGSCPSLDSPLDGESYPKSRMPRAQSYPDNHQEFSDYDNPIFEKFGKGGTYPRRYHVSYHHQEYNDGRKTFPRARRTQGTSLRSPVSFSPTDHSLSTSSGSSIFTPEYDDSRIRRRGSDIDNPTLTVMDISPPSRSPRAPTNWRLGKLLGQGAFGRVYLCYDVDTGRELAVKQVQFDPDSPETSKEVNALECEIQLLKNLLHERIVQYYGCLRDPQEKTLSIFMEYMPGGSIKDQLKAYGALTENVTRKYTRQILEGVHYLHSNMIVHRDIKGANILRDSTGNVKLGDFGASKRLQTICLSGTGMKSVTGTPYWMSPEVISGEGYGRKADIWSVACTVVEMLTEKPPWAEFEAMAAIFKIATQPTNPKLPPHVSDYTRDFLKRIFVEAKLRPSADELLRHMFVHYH
In words: Inhibition of MAP3K2 Lys1 labeling site in human Huh-7 cells at 1 uM by KiNativ Profiling analysis relative to control. The assay is classed as cell-based.

The target of assay [3] is Phosphatidylinositol 4-phosphate 3-kinase C2 domain-containing subunit beta (Homo sapiens) (UniProt O00750). The experiment in a line: Inhibition of PIK3C2B ATP labeling site in human Huh-7 cell lysate at 1 uM by KiNativ Profiling analysis relative to control. The assay is classed as subcellular.
The target in assay [4] is Tyrosine-protein kinase Fyn (Homo sapiens) (UniProt P06241). In words: Inhibition of FYN ACT labeling site in human Huh-7 cell lysate at 1 uM by KiNativ Profiling analysis relative to control. In kind it is subcellular.
Tyrosine-protein kinase Fyn (Homo sapiens), sequence (P06241 2-537 limits assumed): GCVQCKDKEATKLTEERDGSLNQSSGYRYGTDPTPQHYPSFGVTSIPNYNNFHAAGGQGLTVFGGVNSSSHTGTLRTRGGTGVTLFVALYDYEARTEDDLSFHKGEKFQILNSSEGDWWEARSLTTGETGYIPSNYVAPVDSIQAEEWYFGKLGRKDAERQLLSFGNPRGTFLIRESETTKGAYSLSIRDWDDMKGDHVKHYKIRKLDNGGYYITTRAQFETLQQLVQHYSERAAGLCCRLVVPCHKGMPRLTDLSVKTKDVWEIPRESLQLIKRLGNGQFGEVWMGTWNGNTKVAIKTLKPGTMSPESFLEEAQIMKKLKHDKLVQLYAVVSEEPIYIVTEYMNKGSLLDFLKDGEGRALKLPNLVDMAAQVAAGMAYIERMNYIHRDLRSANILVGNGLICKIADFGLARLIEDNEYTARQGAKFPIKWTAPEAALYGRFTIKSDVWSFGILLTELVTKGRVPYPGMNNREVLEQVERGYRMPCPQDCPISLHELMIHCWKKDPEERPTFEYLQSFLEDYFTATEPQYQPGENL
The target in assay [5] is Serine/threonine-protein kinase 4 (Homo sapiens) (UniProt Q13043). The experiment in a line: Inhibition of MST1 Lys2 labeling site harbouring DIKAGNILLNTEGHAK in human A-375 cells at 5 uM by KiNativ Profiling analysis relative to control.
The target of assay [6] is Activin receptor type-2A (Homo sapiens) (UniProt P27037). The experiment in a line: Inhibition of ACVR2A (unknown origin) at 1 uM by Ambit Kinomescan binding assay relative to control.
Activin receptor type-2A (Homo sapiens), sequence (P27037 whole entry): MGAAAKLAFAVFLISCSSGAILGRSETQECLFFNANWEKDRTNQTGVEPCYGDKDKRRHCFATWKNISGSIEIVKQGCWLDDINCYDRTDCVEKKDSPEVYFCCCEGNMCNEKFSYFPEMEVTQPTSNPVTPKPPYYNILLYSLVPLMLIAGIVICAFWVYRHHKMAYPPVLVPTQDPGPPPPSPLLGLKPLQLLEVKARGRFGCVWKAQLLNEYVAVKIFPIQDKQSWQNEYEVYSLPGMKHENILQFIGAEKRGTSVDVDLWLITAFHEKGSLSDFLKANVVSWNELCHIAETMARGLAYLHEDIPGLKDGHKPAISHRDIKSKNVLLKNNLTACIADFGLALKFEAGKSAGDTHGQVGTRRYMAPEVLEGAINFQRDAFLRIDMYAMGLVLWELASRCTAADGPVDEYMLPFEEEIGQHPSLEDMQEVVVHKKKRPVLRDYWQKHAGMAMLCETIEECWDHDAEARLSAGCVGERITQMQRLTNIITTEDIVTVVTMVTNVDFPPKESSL
The target of assay [7] is Vascular endothelial growth factor receptor 3 (Homo sapiens) (UniProt P35916). In words: Inhibition of FLT4 (unknown origin) at 10 uM by Ambit Kinomescan binding assay relative to control.
Vascular endothelial growth factor receptor 3 (Homo sapiens), sequence (P35916 whole entry): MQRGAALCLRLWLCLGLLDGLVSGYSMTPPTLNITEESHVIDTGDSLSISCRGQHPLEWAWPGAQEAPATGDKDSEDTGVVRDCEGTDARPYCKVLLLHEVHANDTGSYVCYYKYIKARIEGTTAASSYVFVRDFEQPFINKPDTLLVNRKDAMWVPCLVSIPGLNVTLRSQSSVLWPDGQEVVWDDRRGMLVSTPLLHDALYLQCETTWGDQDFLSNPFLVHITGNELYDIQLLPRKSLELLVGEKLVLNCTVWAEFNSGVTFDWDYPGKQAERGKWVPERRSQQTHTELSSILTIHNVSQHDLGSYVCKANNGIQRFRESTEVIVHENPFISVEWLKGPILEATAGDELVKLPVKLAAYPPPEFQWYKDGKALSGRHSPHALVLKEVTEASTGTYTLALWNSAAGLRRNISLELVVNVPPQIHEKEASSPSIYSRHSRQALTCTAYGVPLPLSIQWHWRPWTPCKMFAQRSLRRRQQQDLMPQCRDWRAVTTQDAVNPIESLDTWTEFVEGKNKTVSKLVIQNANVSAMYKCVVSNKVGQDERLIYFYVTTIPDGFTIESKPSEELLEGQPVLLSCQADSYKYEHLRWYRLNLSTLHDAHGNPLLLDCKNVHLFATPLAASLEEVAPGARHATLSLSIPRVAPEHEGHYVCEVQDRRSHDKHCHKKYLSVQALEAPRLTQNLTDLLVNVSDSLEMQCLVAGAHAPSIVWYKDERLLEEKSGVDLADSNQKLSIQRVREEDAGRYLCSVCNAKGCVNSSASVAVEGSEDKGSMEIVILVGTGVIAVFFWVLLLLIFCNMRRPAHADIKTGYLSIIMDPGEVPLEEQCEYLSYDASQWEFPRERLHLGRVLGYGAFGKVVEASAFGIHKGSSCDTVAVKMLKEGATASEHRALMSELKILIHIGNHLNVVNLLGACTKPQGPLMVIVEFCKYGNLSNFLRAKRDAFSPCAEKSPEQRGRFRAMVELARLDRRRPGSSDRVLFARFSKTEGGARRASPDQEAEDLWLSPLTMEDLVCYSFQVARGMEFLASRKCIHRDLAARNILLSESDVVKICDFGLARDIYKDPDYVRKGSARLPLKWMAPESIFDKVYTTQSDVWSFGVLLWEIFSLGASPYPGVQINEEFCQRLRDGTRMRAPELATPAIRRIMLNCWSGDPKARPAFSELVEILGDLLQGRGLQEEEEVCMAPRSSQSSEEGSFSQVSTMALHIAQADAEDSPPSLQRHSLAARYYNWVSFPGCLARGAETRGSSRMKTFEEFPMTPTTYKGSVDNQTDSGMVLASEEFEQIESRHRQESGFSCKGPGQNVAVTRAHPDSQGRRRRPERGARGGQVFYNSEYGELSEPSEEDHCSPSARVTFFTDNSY
For assay [8], the target named is TRAF2 and NCK-interacting protein kinase (Homo sapiens) (UniProt Q9UKE5). In words: Inhibition of ZC2/TNIK Lys2 labeling site in human A-375 cells at 5 uM by KiNativ Profiling analysis relative to control. In kind it is cell-based.
TRAF2 and NCK-interacting protein kinase (Homo sapiens), sequence (Q9UKE5 whole entry, looked up): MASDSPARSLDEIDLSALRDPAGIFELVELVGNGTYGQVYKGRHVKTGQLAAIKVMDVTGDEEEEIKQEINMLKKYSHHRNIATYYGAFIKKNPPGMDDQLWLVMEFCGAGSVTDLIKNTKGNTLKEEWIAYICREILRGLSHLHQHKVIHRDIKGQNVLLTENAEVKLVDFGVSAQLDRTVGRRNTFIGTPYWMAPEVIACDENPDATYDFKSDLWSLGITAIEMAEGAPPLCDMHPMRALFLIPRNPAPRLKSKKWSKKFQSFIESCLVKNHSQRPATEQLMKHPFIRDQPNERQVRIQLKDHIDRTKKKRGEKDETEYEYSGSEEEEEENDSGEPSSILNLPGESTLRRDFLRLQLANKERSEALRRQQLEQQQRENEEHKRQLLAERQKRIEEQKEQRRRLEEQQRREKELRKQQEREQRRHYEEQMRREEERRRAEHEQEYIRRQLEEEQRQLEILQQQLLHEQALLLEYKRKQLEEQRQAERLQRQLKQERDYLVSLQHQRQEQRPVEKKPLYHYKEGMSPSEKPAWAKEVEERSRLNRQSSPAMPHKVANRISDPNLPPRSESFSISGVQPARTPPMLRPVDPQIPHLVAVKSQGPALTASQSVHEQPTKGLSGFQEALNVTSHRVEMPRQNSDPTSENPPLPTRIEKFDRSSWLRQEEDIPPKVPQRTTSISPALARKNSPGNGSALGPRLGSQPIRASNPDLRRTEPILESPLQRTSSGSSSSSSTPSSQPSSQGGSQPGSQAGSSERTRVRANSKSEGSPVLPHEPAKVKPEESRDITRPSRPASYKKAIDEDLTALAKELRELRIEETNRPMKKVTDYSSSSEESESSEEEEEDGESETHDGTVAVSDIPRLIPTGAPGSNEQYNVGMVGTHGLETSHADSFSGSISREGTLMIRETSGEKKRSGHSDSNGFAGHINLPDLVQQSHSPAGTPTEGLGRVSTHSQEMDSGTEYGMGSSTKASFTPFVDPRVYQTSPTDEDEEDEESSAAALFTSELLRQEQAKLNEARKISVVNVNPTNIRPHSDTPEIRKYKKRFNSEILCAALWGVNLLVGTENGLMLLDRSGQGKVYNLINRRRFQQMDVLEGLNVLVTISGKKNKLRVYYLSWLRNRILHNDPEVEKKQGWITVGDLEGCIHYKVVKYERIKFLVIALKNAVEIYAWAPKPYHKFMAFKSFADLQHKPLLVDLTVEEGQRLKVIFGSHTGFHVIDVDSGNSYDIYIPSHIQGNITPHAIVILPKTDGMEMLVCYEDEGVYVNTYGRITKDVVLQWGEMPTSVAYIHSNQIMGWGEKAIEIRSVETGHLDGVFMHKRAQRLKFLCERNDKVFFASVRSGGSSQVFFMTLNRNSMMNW
In assay [9] the target is T2, Eukaryotic translation initiation factor 2-alpha kinase 3 (Homo sapiens) (UniProt Q9NZJ5).
T2 sequence (whole entry): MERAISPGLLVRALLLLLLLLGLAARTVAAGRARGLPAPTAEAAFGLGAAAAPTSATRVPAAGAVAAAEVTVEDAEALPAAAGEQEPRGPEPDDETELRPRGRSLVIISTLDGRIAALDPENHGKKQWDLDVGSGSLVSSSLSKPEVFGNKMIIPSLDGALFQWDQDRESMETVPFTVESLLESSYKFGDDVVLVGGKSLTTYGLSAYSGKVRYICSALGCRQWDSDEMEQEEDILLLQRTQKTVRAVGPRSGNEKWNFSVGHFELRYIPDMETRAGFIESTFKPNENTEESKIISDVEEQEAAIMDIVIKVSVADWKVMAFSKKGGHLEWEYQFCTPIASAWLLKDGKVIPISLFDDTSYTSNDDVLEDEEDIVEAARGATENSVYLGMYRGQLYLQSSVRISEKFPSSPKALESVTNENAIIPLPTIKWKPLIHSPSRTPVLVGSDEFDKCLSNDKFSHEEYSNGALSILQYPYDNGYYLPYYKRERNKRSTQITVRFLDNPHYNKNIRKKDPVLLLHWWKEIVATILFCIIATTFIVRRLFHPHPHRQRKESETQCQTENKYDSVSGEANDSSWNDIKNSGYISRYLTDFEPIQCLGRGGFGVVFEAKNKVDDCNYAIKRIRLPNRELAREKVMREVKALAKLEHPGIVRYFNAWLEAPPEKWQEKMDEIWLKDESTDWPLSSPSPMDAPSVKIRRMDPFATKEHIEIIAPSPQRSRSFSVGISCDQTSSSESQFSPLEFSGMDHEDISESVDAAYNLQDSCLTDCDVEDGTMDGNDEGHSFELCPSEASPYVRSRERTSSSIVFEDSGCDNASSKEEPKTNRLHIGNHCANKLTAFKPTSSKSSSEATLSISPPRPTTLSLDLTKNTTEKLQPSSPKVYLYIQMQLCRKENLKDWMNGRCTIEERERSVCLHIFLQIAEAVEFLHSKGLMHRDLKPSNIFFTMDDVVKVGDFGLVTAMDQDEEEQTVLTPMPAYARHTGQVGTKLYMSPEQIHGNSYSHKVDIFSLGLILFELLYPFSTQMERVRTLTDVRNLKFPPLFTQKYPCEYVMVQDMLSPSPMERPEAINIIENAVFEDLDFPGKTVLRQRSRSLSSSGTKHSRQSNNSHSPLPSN
In words: Inhibition of PEK K2 labeling site in human Huh-7 cells at 1 uM by KiNativ Profiling analysis relative to control. In kind it is cell-based.

For assay [10], the target named is T3, Serine/threonine-protein kinase STK11 (Homo sapiens) (UniProt Q15831).
T3 sequence (whole entry): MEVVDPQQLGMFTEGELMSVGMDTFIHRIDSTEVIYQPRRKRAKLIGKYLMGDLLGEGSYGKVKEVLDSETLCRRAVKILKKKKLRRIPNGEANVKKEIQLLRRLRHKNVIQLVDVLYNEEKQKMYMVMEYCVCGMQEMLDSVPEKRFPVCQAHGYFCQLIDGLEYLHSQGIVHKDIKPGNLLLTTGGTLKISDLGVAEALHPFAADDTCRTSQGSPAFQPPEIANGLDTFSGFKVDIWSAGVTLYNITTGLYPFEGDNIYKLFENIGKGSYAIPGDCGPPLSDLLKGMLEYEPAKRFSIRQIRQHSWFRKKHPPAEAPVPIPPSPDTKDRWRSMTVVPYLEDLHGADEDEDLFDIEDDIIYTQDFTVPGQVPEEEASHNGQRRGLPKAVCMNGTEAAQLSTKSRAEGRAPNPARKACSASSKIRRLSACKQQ
In words: Inhibition of LKB1 K2 labeling site in human Huh-7 cells at 10 uM by KiNativ Profiling analysis relative to control. The assay is classed as cell-based.

As usually defined, the inhibition is the percentage by which the read-out fell short of the control. As to `CNc1cc(Oc2cc(C(=O)Nc3cc(N4CCN(C)CC4)cc(C(F)(F)F)c3)ccc2C)ncn1`, the inhibition is 7.2% in assay [1], 28.2% in [2], 9% in assay [3] and 22% in [4].
In the case of `CCN1CCN(Cc2ccc(NC(=O)c3ccc(C)c(/C=C/c4cnc5[nH]ccc5c4OC)c3)cc2C(F)(F)F)CC1`, the values for the inhibition in assay [5] and in [6] were 14.1% and 100%, respectively.
For `CCN1CCN(Cc2ccc(NC(=O)c3ccc(C)c(Oc4ccnc5[nH]ccc45)c3)cc2C(F)(F)F)CC1`, the inhibition in assay [7] came to 0.2%; in assay [8], 92.7%; in assay [10] it was 11.6%. Further, the inhibition result in [9] was “inactive”.
